From ChEMBL document CHEMBL1142343, “Design and structure-activity relationships of potent and selective inhibitors of undecaprenyl pyrophosphate synthase (UPPS): tetramic, tetronic acids and dihydropyridin-2-ones” (Bioorg Med Chem Lett, 2008)
In brackets after ≈: the same amount, converted by molar mass.

What was measured:
Streptococcus pneumoniae = experiment: Antibacterial activity against Streptococcus pneumoniae by microdilution broth method; assay type: functional
Staphylococcus aureus = experiment: Antibacterial activity against Staphylococcus aureus by microdilution broth method; assay type: functional
[1] = molecular target: T1, Farnesyl pyrophosphate synthase (Homo sapiens, UniProt P14324); experiment: Inhibition of human FPPS
T1 sequence (P14324 whole entry): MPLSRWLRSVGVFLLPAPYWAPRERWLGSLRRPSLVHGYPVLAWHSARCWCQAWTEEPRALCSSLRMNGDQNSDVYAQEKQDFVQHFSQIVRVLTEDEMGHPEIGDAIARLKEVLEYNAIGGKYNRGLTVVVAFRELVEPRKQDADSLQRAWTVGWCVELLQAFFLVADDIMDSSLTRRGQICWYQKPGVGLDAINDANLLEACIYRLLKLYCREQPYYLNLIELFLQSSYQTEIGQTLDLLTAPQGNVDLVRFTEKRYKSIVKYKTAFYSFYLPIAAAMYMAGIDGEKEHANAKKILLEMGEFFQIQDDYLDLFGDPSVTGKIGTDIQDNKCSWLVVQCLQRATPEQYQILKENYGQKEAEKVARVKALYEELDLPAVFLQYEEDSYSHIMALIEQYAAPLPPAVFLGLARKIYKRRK

Enterococcus faecalis = experiment: Antibacterial activity against Enterococcus faecalis by microdilution broth method; assay type: functional
[2] = Dissociation constant, pKa of the compound; assay type: physicochemical
Isoprenyl transferase = molecular target: T2, Isoprenyl transferase (Streptococcus pneumoniae serotype 4 (strain ATCC BAA-334 / TIGR4), UniProt Q97SR4); experiment: Inhibition of Streptococcus pneumoniae UPPS
T2 sequence (Q97SR4 whole entry): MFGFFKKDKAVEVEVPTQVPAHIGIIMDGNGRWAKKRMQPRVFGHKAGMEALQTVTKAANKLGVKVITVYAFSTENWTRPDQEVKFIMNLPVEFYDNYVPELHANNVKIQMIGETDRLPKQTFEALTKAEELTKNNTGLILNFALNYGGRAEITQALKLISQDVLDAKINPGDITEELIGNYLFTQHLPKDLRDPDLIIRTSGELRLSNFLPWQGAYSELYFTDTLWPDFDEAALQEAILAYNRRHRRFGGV

Row | MIC (Streptococcus pneumoniae) | MIC (Staphylococcus aureus) | IC50 [1] | MIC (Enterococcus faecalis) | pKa [2] | IC50 (Isoprenyl transferase) | SMILES
1 | 32 µg/mL (≈ 77.2 µM) | 16 µg/mL (≈ 38.6 µM) | > 50 µM | 64 µg/mL (≈ 154 µM) | 6.5 | 0.11 µM | O=C(Nc1ccc(Oc2ccccc2)cc1)C1=C(O)CC(Cc2ccccc2)NC1=O (centres undefined)
2 | 32 µg/mL (≈ 82.4 µM) | 32 µg/mL (≈ 82.4 µM) |  | 32 µg/mL (≈ 82.4 µM) | 6.5 | 0.63 µM | O=C(Nc1ccc(-n2ccnc2)cc1)C1=C(O)CC(Cc2ccccc2)NC1=O (centres undefined)
3 | 64 µg/mL (≈ 158 µM) | 64 µg/mL (≈ 158 µM) | > 50 µM | 64 µg/mL (≈ 158 µM) | 6.5 | 0.11 µM | O=C(Nc1ccc(N2CCCCC2)cc1)C1=C(O)CC(Cc2ccccc2)NC1=O (centres undefined)
4 | 4 µg/mL (≈ 10.2 µM) | 4 µg/mL (≈ 10.2 µM) | > 50 µM | 8 µg/mL (≈ 20.5 µM) | 6.5 | 0.2 µM | O=C(Nc1ccc(C2CCCCC2)cc1)C1=C(O)CC(c2ccccc2)NC1=O (centres undefined)
5 | 2 µg/mL (≈ 5.02 µM) | 4 µg/mL (≈ 10 µM) | > 100 µM | 16 µg/mL (≈ 40.2 µM) | 3 | 0.12 µM | O=C(Nc1ccc(-c2ccccc2)cc1)C1=C(O)C(CCc2ccccc2)NC1=O (centres undefined)
6 | 1 µg/mL (≈ 2.47 µM) | 4 µg/mL (≈ 9.89 µM) | > 100 µM | 4 µg/mL (≈ 9.89 µM) | 3 | 0.16 µM | O=C(Nc1ccc(C2CCCCC2)cc1)C1=C(O)C(CCc2ccccc2)NC1=O (centres undefined)
7 | 64 µg/mL (≈ 195 µM) | 32 µg/mL (≈ 97.4 µM) |  | 32 µg/mL (≈ 97.4 µM) | 3 | 35 µM | O=C(NC1CCCCC1)C1=C(O)C(CCc2ccccc2)NC1=O (centres undefined)
8 | 1 µg/mL (≈ 2.55 µM) | 64 µg/mL (≈ 163 µM) | > 50 µM | 32 µg/mL (≈ 81.7 µM) |  | 0.5 µM | O=C(Nc1ccc(C2CCCCC2)cc1)C1=C(O)C(Cc2ccccc2)OC1=O (centres undefined)
9 | 4 µg/mL (≈ 10.4 µM) | > 128 µg/mL |  | 32 µg/mL (≈ 83 µM) |  | 1.1 µM | O=C(Nc1ccc(-c2ccccc2)cc1)C1=C(O)C(Cc2ccccc2)OC1=O (centres undefined)
10 | 16 µg/mL (≈ 40.6 µM) | 16 µg/mL (≈ 40.6 µM) |  | 4 µg/mL (≈ 10.1 µM) |  | 2.1 µM | O=C1NCC(CC2CCCCC2)C(O)=C1C(=O)Nc1ccc(-n2ccnc2)cc1 (centres undefined)
11 | 4 µg/mL (≈ 10.8 µM) | > 64 µg/mL |  | 64 µg/mL (≈ 173 µM) | 6.5 | 0.2 µM | CC(C)CC1CC(O)=C(C(=O)Nc2ccc(C3CCCCC3)cc2)C(=O)N1 (centres undefined)
12 | 4 µg/mL (≈ 9.86 µM) | 4 µg/mL (≈ 9.86 µM) | > 50 µM | 8 µg/mL (≈ 19.7 µM) | 3 | 0.8 µM | O=C(Nc1ccc(N2CCCCC2)cc1)C1=C(O)C(CCc2ccccc2)NC1=O (centres undefined)
13 | 4 µg/mL (≈ 10.2 µM) | 4 µg/mL (≈ 10.2 µM) | > 100 µM | 64 µg/mL (≈ 164 µM) | 6.5 | 0.07 µM | O=C(Nc1ccc(C2CCCCC2)cc1)C1=C(O)C[C@@H](c2ccccc2)NC1=O
14 |  |  |  |  | 3 | 58 µM | O=C1NCC(O)=C1C(=O)Nc1ccc(C2CCCCC2)cc1
15 | 2 µg/mL (≈ 5.31 µM) | 2 µg/mL (≈ 5.31 µM) | > 100 µM | 4 µg/mL (≈ 10.6 µM) | 3 | 3.5 µM | O=C(Nc1ccc(C2CCCCC2)cc1)C1=C(O)C(c2ccccc2)NC1=O (centres undefined)
16 |  |  |  |  | 3 | 19 µM | CCCCCCOc1ccc(NC(=O)C2=C(O)C(Cc3ccccc3)NC2=O)cc1 (centres undefined)

Row | MIC (Streptococcus pneumoniae) | MIC (Staphylococcus aureus) | IC50 [1] | MIC (Enterococcus faecalis) | pKa [2] | IC50 (Isoprenyl transferase) | SMILES
17 |  |  |  |  | 6.5 | 1.1 µM | O=C(Nc1ccc(Nc2ccccc2)cc1)C1=C(O)CC(Cc2ccccc2)NC1=O (centres undefined)
18 | 8 µg/mL (≈ 21 µM) | 16 µg/mL (≈ 42.1 µM) |  | 16 µg/mL (≈ 42.1 µM) | 3 | 4.2 µM | O=C(Nc1ccc(C2CCCCC2)cc1)C1=C(O)C(Cc2ncc[nH]2)NC1=O (centres undefined)
19 | 16 µg/mL (≈ 34.6 µM) | 32 µg/mL (≈ 69.2 µM) |  | 16 µg/mL (≈ 34.6 µM) | 6.5 | 8.5 µM | O=C(Nc1ccc(S(=O)(=O)c2ccccc2)cc1)C1=C(O)CC(Cc2ccccc2)NC1=O (centres undefined)
20 | 8 µg/mL (≈ 19.8 µM) | 32 µg/mL (≈ 79.1 µM) | > 50 µM | 64 µg/mL (≈ 158 µM) | 6.5 | 0.04 µM | O=C(Nc1ccc(C2CCCCC2)cc1)C1=C(O)CC(Cc2ccccc2)NC1=O (centres undefined)
21 | > 32 µg/mL | > 32 µg/mL |  | 32 µg/mL (≈ 80.7 µM) | 6.5 | 0.06 µM | O=C(Nc1ccc(C2CCCCC2)cc1)C1=C(O)CC(C2CCCCC2)NC1=O (centres undefined)
22 | 8 µg/mL (≈ 20.4 µM) | 16 µg/mL (≈ 40.9 µM) | > 50 µM | 16 µg/mL (≈ 40.9 µM) | 6.5 | 0.14 µM | O=C(Nc1ccc(C(F)(F)F)nc1)C1=C(O)CC(Cc2ccccc2)NC1=O (centres undefined)
23 | 1 µg/mL (≈ 2.81 µM) | 0.5 µg/mL (≈ 1.4 µM) | > 50 µM | 2 µg/mL (≈ 5.61 µM) | 3 | 1.3 µM | CC(C)CC1NC(=O)C(C(=O)Nc2ccc(C3CCCCC3)cc2)=C1O (centres undefined)
24 | 32 µg/mL (≈ 82.4 µM) | 64 µg/mL (≈ 165 µM) |  | 4 µg/mL (≈ 10.3 µM) |  | 8.8 µM | O=C1NCC(Cc2ccccc2)C(O)=C1C(=O)Nc1ccc(-n2ccnc2)cc1 (centres undefined)
25 | 16 µg/mL (≈ 47 µM) | 16 µg/mL (≈ 47 µM) |  | 64 µg/mL (≈ 188 µM) | 3 | 2.5 µM | O=C(Nc1ccc(F)cc1)C1=C(O)C(CCc2ccccc2)NC1=O (centres undefined)
26 |  | 0.5 µg/mL (≈ 1.28 µM) | 8 µM | 1 µg/mL (≈ 2.56 µM) | 3 | 0.3 µM | O=C(Nc1ccc(C2CCCCC2)cc1)C1=C(O)CN(Cc2ccccc2)C1=O
27 | 4 µg/mL (≈ 11 µM) | 32 µg/mL (≈ 87.9 µM) | > 50 µM | 32 µg/mL (≈ 87.9 µM) |  | 2 µM | O=C(Nc1cc(Cl)cc(Cl)c1)C1=C(O)C(c2ccccc2)OC1=O (centres undefined)
28 | 1 µg/mL (≈ 2.56 µM) | 0.5 µg/mL (≈ 1.28 µM) | > 100 µM | 8 µg/mL (≈ 20.5 µM) | 3 | 1.8 µM | O=C(Nc1ccc(C2CCCCC2)cc1)C1=C(O)C(Cc2ccccc2)NC1=O (centres undefined)
29 |  |  |  |  | 3 | > 50 µM | COCC1NC(=O)C(C(=O)Nc2ccc(C3CCCCC3)cc2)=C1O (centres undefined)
30 | 4 µg/mL (≈ 10.2 µM) | 4 µg/mL (≈ 10.2 µM) | > 50 µM | 64 µg/mL (≈ 164 µM) | 6.5 | 0.18 µM | O=C(Nc1ccc(C2CCCCC2)cc1)C1=C(O)C[C@H](c2ccccc2)NC1=O
31 | 64 µg/mL (≈ 194 µM) | > 64 µg/mL | > 50 µM | > 64 µg/mL |  | 24 µM | O=C(Nc1ccc(Cl)cc1)C1=C(O)C(c2ccccc2)OC1=O (centres undefined)
32 | 64 µg/mL (≈ 195 µM) | 64 µg/mL (≈ 195 µM) | > 50 µM | 64 µg/mL (≈ 195 µM) | 6.5 | 0.07 µM | O=C(NC1CCCCC1)C1=C(O)CC(Cc2ccccc2)NC1=O (centres undefined)
